The text below walks through data of patent publication US9981913B2, “Liver X receptor (LXR) modulators” (Ralexar Therapeutics, Inc., priority 2013, dated 2018).

The target of the experiment is T1, human LXRβ (AA 153-461) LBD (Homo sapiens, UniProt P55055).
T1 construct: human LXRβ (AA 153-461) LBD plasmid; expressed in transfected cells; host or cells: HEK 293 cells, transient transfection with Fugene 6
T1 sequence (P55055 153-460 limits assumed): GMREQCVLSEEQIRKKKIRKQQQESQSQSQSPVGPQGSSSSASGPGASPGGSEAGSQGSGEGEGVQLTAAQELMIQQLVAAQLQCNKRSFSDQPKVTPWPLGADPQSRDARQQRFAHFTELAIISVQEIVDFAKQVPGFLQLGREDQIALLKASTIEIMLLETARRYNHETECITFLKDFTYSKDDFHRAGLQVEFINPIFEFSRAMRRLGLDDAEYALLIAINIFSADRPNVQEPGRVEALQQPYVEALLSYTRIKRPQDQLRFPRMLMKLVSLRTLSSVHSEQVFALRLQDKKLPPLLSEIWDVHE
The experiment in a line: Gal4 LXRβ cotransfection assay (LXRβ Gal fusion assay). The following applies: transiently transfected HEK 293 cells, Gal4-responsive luciferase reporter, compounds 0.01-10 μM, triplicate. The experiment is classed as cell-based. The protocol: For transient transfection of HEK 293 cells, 6×10^3 cells are plated into 96-well dishes. Each well is transfected with 25 ng 5×UAS-luciferase reporter (pG5luc) and 25 ng of […] human LXRβ (AA 153-461) LBD plasmid using Fugene 6 reagent (Roche; Indianapolis, Ind.). The chimeric protein is assessed for the ability to transactivate a Gal4-responsive luciferase reporter plasmid in a concentration-responsive manner to compounds (0.01-10 μM). Luciferase activity at each dose concentration is measured in triplicate using standard substrate reagents (BD Biosciences; San Diego, Calif.). Data is expressed as relative light units and are shown below in Table 1.
`CCOC(=O)Cc1nc(C(F)(F)F)cn1-c1ccc(-c2ccc(CO)c(S(C)(=O)=O)c2)cc1` [Example 3, Ethyl 2-(1-(4′-(hydroxymethyl)-3′-(methylsulfonyl)-[1,1′-biphenyl]-4-yl)-4-(trifluoromethyl)-1H-imidazol-2-yl)acetate] returned an EC50 of less than 1 µM.
The result for `CC(C)c1cc(-c2ccc(-c3cccc(S(C)(=O)=O)c3)cc2)n(CC(=O)O)n1` [Example 16, 2-(3-Isopropyl-5-(3′-(methylsulfonyl)-[1,1′-biphenyl]-4-yl)-1H-pyrazol-1-yl)acetic acid] reads more than 10 µM; that for `CS(=O)(=O)c1cc(-c2ccc(-n3cc(C(F)(F)F)nc3CC(=O)O)cc2)ccc1CO` [Example 4, 2-(1-(4′-(Hydroxymethyl)-3′-(methylsulfonyl)[1,1′-biphenyl]-4-yl)-4-(trifluoromethyl)-1H-imidazol-2-yl)acetic acid], more than 10 µM; that for `CC(C)Cc1nc(C(=O)O)cn1-c1ccc(-c2ccc(CO)c(S(C)(=O)=O)c2)cc1` [Example 12, 1-(4′-(Hydroxymethyl)-3′-(methylsulfonyl)-[1,1′-biphenyl]-4-yl)-2-isobutyl-1H-imidazole-4-carboxylic acid], more than 10 µM.
The result for `CC(C)Cc1nc(C(=O)O)cn1-c1ccc(-c2cccc(S(C)(=O)=O)c2)cc1` [Example 10, 2-Isobutyl-1-(3′-(methylsulfonyl)-[1,1′-biphenyl]-4-yl)-1H-imidazole-4-carboxylic acid] reads more than 10 µM; that for `CCOC(=O)Cn1nc(C(C)C)cc1-c1ccc(-c2cccc(S(C)(=O)=O)c2)cc1` [Example 15, Ethyl 2-(3-isopropyl-5-(3′-(methylsulfonyl)-[1,1′-biphenyl]-4-yl)-1H-pyrazol-1-yl)acetate], 1 to 10 µM; that for `CC(C)Cn1nc(C(=O)O)cc1-c1ccc(-c2cccc(S(C)(=O)=O)c2)cc1` [Example 6, 1-Isobutyl-5-(3′-(methylsulfonyl)-[1,1′-biphenyl]-4-yl)-1H-pyrazole-3-carboxylic acid], more than 10 µM.
For `CCOC(=O)c1cn(-c2ccc(-c3ccc(CO)c(S(C)(=O)=O)c3)cc2)c(CC(C)C)n1` [Example 11, Ethyl 1-(4′-(hydroxymethyl)-3′-(methylsulfonyl)-[1,1′-biphenyl]-4-yl)-2-isobutyl-1H-imidazole-4-carboxylate] the value was 1 to 10 µM.
With `CCOC(=O)Cc1nc(C(F)(F)F)cn1-c1ccc(-c2cccc(S(C)(=O)=O)c2)cc1` [Example 1, Ethyl 2-(1-(3′-(methylsulfonyl)-[1,1′-biphenyl]-4-yl)-4-(trifluoromethyl)-1H-imidazol-2-yl)acetate], the EC50 is 1 to 10 µM.
Consider `CCOC(=O)c1cc(-c2ccc(-c3cccc(S(C)(=O)=O)c3)cc2)n(CC(C)C)n1` [Example 5, Ethyl 1-isobutyl-5-(3′-(methylsulfonyl)-[1,1′-biphenyl]-4-yl)-1H-pyrazole-3-carboxylate], for which the EC50 is less than 1 µM.
Regarding `CCOC(=O)c1cc(-c2ccc(-c3ccc(CO)c(S(C)(=O)=O)c3)cc2)n(CC(C)C)n1` [Example 7, Ethyl 5-(4′-(hydroxymethyl)-3′-(methylsulfonyl)[1,1′-biphenyl]-4-yl)-1-isobutyl-1H-pyrazole-3-carboxylate], the EC50 is 1 to 10 µM.
The result for `CCOC(=O)c1cn(-c2ccc(-c3cccc(S(C)(=O)=O)c3)cc2)c(CC(C)C)n1` [Example 9, Ethyl 2-isobutyl-1-(3′-(methylsulfonyl)-[1,1′-biphenyl]-4-yl)-1H-imidazole-4-carboxylate] reads 1 to 10 µM; that for `CS(=O)(=O)c1cccc(-c2ccc(-n3cc(C(F)(F)F)nc3CC(=O)O)cc2)c1` [Example 2, 2-(1-(3′-(Methylsulfonyl)-[1,1′-biphenyl]-4-yl)-4-(trifluoromethyl)-1H-imidazol-2-yl)acetic acid], more than 10 µM; that for `C=C(C)c1cc(-c2ccc(-c3cccc(S(C)(=O)=O)c3)cc2)n(CC(=O)OCC)n1` [Example 13, Ethyl 2-(5-(3′-(methylsulfonyl)-[1,1′-biphenyl]-4-yl)-3-(prop-1-en-2-yl)-1H-pyrazol-1-yl)acetate], less than 1 µM.
`C=C(C)c1cc(-c2ccc(-c3cccc(S(C)(=O)=O)c3)cc2)n(CC(=O)O)n1` [Example 14, 2-(5-(3′-(Methylsulfonyl)-[1,1′-biphenyl]-4-yl)-3-(prop-1-en-2-yl)-1H-pyrazol-1-yl)acetic acid] came in with a 50% effective concentration (EC50) of more than 10 µM.
The result for `CC(C)Cn1nc(C(=O)O)cc1-c1ccc(-c2ccc(CO)c(S(C)(=O)=O)c2)cc1` [Example 8, 5-(4′-(Hydroxymethyl)-3′-(methylsulfonyl)-[1,1′-biphenyl]-4-yl)-1-isobutyl-1H-pyrazole-3-carboxylic acid] reads more than 10 µM.
